# According to the supplement of paper PMC13380429:
# Assays:
# Conditions in all cases: 72 h
# [1] = tested on: HepG2; assay: drug sensitivity score (DSS) for viability; higher = more toxic; extreme values may be limits of the assay
# [2] = tested on: Caco-2; assay: as above
# [3] = tested on: U2OS; assay: as above
# [4] = tested on: Calu-3; assay: as above
# [5] = tested on: Vero E6; assay: as above
# [6] = tested on: HepG2; assay: cell viability relative to DMSO; higher = less toxic
# [7] = tested on: Caco-2; assay: as above
# [8] = tested on: U2OS; assay: as above
# [9] = tested on: Calu-3; assay: as above
# [10] = tested on: Vero E6; assay: as above
# [11] = tested on: HepG2; assay: relative viability EC50 (midpoint between 100% and the lowest measured viability); higher = less toxic
# [12] = tested on: Caco-2; assay: as above
# [13] = tested on: U2OS; assay: as above
# [14] = tested on: Calu-3; assay: as above
# [15] = tested on: Vero E6; assay: as above
Structure (SMILES),drug sensitivity score [1],drug sensitivity score [2],drug sensitivity score [3],drug sensitivity score [4],drug sensitivity score [5],cell viability ([6]; 1 nM),cell viability ([6]; 10 nM),cell viability ([6]; 100 nM),cell viability ([6]; 1000 nM),cell viability ([6]; 10000 nM),cell viability ([7]; 1 nM),cell viability ([7]; 10 nM),cell viability ([7]; 100 nM),cell viability ([7]; 1000 nM),cell viability ([7]; 10000 nM),cell viability ([8]; 1 nM),cell viability ([8]; 10 nM),cell viability ([8]; 100 nM),cell viability ([8]; 1000 nM),cell viability ([8]; 10000 nM),cell viability ([9]; 1 nM),cell viability ([9]; 10 nM),cell viability ([9]; 100 nM),cell viability ([9]; 1000 nM),cell viability ([9]; 10000 nM),cell viability ([10]; 1 nM),cell viability ([10]; 10 nM),cell viability ([10]; 100 nM),cell viability ([10]; 1000 nM),cell viability ([10]; 10000 nM),relative viability EC50 [11],relative viability EC50 [12],relative viability EC50 [13],relative viability EC50 [14],relative viability EC50 [15]
CCCCCCCCCC(=O)O[C@H]1CC[C@H]2[C@@H]3CCC4=CC(=O)CC[C@@H]4[C@H]3CC[C@]12C [Nandrolone decanoate],0,0,0,0,0,104%,95.7%,97.9%,102%,101%,90.7%,104%,96.2%,106%,96.4%,102%,99.3%,99.1%,101%,94%,94.1%,88.6%,83%,90.9%,89%,108%,97.1%,102%,97.5%,104%,> 10 µM,> 10 µM,> 10 µM,> 10 µM,> 10 µM
COC(=O)C1=C(C)NC(C)=C(C(=O)OCCSc2ccccc2)[C@@H]1C [PCA-4248],0,0.8,0,0.1,0,92%,90.3%,93.4%,94.6%,95.9%,97.7%,99.4%,102%,94.8%,84%,98%,95.9%,93.6%,92.9%,96.1%,93.8%,95.6%,104%,99%,87.7%,98.1%,99.1%,98.2%,96.5%,98.8%,> 10 µM,> 10 µM,> 10 µM,> 10 µM,> 10 µM
CN1CCN(C(=O)CN[C@@H]2C[C@H]2c2ccc(OCc3ccccc3)cc2)CC1 [RN-1],0.7,1.5,0,0,0.1,87.4%,103%,99.9%,94.2%,84.9%,109%,95.2%,90.2%,89.2%,83.3%,103%,98.3%,102%,96.7%,96%,89.9%,82.5%,96.1%,94.5%,108%,99.5%,102%,105%,92.2%,89.1%,> 10 µM,> 10 µM,> 10 µM,> 10 µM,> 10 µM
CS(=O)(=O)c1ccc([C@@H](CC2CCCC2)C(=O)Nc2nccs2)cc1 [Ro-28-1675],0,0,0,0,0,97.2%,96.4%,108%,90.8%,103%,92%,97.8%,102%,106%,92.2%,101%,96.1%,101%,102%,98.9%,103%,100%,114%,99.6%,99.3%,95.5%,95.2%,96.8%,91.1%,98.9%,> 10 µM,> 10 µM,> 10 µM,> 10 µM,> 10 µM
C[C@H](N)Cn1ccc2cc(F)c(Cl)cc21 [Ro-60-0175],0,0.6,0,0,0,99.5%,101%,106%,99.8%,103%,94.9%,90.9%,101%,95.8%,85.2%,96.5%,106%,96.9%,104%,93.3%,93.7%,92.3%,87.4%,95.6%,87.2%,104%,98.4%,100%,95.3%,96%,> 10 µM,> 10 µM,> 10 µM,> 10 µM,> 10 µM
O=C(N/N=C/c1ccccc1O)c1ccccc1O [SCS],7.5,8.8,4.4,5,2.8,102%,94.6%,94.1%,86.6%,5.5%,97%,97.6%,88.6%,76.5%,3.6%,98.7%,104%,95.6%,91.1%,46.3%,108%,94.9%,98.2%,99.3%,11.9%,97.6%,100%,101%,102%,45.4%,2.04 µM,1.6 µM,1.89 µM,3.11 µM,3.35 µM
Fc1ccc(-c2nc(-c3c(F)cccc3F)[nH]c2-c2ccncc2)cc1 [TA-01],0,1.5,0,1.6,0,108%,97.3%,94.3%,99.4%,98.4%,105%,109%,99.9%,84.7%,96.1%,108%,112%,101%,98.6%,95.9%,104%,107%,97.2%,85.2%,94.6%,112%,106%,95%,94.7%,93.7%,> 10 µM,> 10 µM,> 10 µM,> 10 µM,> 10 µM
O=[N+]([O-])c1c(Nc2cc(F)cc(Cl)c2)ccc2nonc12 [TC-S-7009],0,0,0,0,0,93.1%,103%,95.3%,85.7%,94.5%,99.2%,96.3%,97.2%,95.9%,92.9%,100%,106%,97.9%,105%,95.9%,102%,98.1%,104%,106%,104%,102%,102%,96.4%,99.5%,95.8%,> 10 µM,> 10 µM,> 10 µM,> 10 µM,> 10 µM
CCOC(=O)c1ccccc1OC(=O)CCCCCCCC(=O)Oc1ccccc1C(=O)OCC [TU-2100],0,0,0,0,0,97.9%,104%,106%,96.7%,98.9%,97.9%,101%,92.1%,95.6%,100%,102%,100%,97.3%,99.6%,99.3%,94.1%,104%,92.3%,95.7%,108%,95.5%,101%,102%,101%,99.9%,> 10 µM,> 10 µM,> 10 µM,> 10 µM,> 10 µM
NC(=O)c1cccc(-c2cccc(OC(=O)NC3CCCCC3)c2)c1 [URB597],0,0,0,0,0,104%,105%,104%,96.9%,92.3%,93.9%,98.7%,93.9%,103%,89.1%,94%,102%,98.5%,105%,98.8%,86.4%,94.6%,92.7%,88.4%,99.1%,107%,98.5%,104%,96.7%,103%,> 10 µM,> 10 µM,> 10 µM,> 10 µM,> 10 µM
CCC[C@H](NC(=O)/C(C#N)=C/c1cccc(Br)n1)c1ccccc1 [WP1130],5.5,5.5,6.3,4,5.7,99.8%,105%,101%,100%,0.8%,106%,103%,93.2%,93%,21.3%,95.7%,108%,97.5%,94.6%,0.9%,100%,97.1%,90.7%,118%,10.8%,101%,100%,100%,97.6%,3.5%,3.18 µM,2.43 µM,2.74 µM,3.94 µM,2.98 µM
CCc1c(C(=O)Nc2cc(S(=O)(=O)N(CC)CC)ccc2O)[nH]c(C)c1C(C)=O [XD-14],0.5,0.7,0.1,0,0.2,96.8%,106%,116%,97.6%,84.6%,101%,93.5%,97.2%,98.8%,80.8%,99.3%,93%,95.6%,100%,87.4%,111%,89.2%,104%,103%,108%,96%,102%,89.5%,91.5%,95.9%,> 10 µM,> 10 µM,> 10 µM,> 10 µM,> 10 µM
CC[C@@H](C)Nc1cc(C(=O)N[C@H]2C[C@H]3CC[C@@H](C2)N3c2ccc(C(=O)C3CC3)cn2)c(C)cc1C(N)=O [XL888],30.8,17.3,24.2,16.8,12.7,108%,93.4%,4.8%,1.3%,1%,104%,94.3%,59.3%,32.8%,35.2%,97.2%,104%,43.4%,4.3%,3.4%,92.4%,101%,53.6%,43.1%,38.7%,104%,104%,99.8%,30.4%,52.4%,0.0285 µM,0.071 µM,0.0872 µM,0.0636 µM,0.315 µM
N=C(N)S/C=C\C(=O)O [ZAPA],0,0,0,0,0,96%,95.5%,104%,89.3%,102%,91.1%,96%,91.3%,104%,106%,92.8%,97.7%,95.6%,100%,101%,83%,103%,101%,103%,95.5%,98.3%,97.1%,94.8%,95%,106%,> 10 µM,> 10 µM,> 10 µM,> 10 µM,> 10 µM
